# Test results taken from paper PMC7066176, “Crystal structure of a lipin/Pah phosphatidic acid phosphatase” (Nature Communications, 2020).
# Biological target: T1, Tt Pah2 (Tetrahymena thermophila, UniProt I7MFJ3)
# T1 construct: gene TTHERM_00215970; residues 1-321 (lacks 14 C-terminal residues of 335), codon-optimised, E. coli; ppSUMO His-SUMO tag cleaved by ULP-1, or pET28 N-terminal His tag kept
# T1 sequence (I7MFJ3 1-321): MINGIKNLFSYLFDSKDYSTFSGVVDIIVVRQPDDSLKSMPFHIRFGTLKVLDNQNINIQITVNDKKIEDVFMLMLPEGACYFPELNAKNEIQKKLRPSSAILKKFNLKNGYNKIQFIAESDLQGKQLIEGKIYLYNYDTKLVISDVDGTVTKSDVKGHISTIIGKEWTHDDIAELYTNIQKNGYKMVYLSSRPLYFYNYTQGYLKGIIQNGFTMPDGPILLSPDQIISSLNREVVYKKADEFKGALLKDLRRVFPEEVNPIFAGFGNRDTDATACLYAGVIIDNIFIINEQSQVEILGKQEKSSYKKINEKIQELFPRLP
# Test: liposome sedimentation, SDS-PAGE
# Format: binding
# Settings: 20 mol% POPA liposomes with 40 mol% POPE and POPC, pH 7.5, room temperature; preferential over neutral and POPS liposomes
structure (smiles),measurement,value
CCCCCCCC/C=C\CCCCCCCC(=O)O[C@H](COC(=O)CCCCCCCCCCCCCCC)COP(=O)(O)O [POPA],"liposome sedimentation, SDS-PAGE","Tt Pah2 also preferentially interacted with PA-containing liposomes, in comparison with neutral or anionic PS-enriched"
